The nature of the data set: method code SF-AS, from DOI: 10.1248/cpb.30.4175, PMID: 7165882.

For the molecule `CN(C)C(=O)OCc1ccc(Br)cc1`, the logP (as a rule, a log measure of how a compound divides between an organic and an aqueous phase) stood at 3.01. In turn, `CN(C)C(=O)OCc1ccc(C#N)cc1` showed a logP of 1.67. As to `COc1cccc(COC(=O)N(C)C)c1`, the logP is 2.09. The molecule `CN(C)C(=O)OCc1cccc(Cl)c1` registered a logP of 2.82. The molecule `CN(C)C(=O)OCc1ccc([N+](=O)[O-])cc1` displayed a logP of 1.95. Take `CN(C)C(=O)OCc1ccc(OCc2ccccc2)cc1`: the logP came to 3.27.

The molecule `CN(C)C(=O)OCc1ccc(OC(=O)N(C)C)cc1` displayed a logP of 1.59. Regarding `Cc1ccc(COC(=O)N(C)C)cc1`, the logP turned out to be 2.63. The molecule `CN(C)C(=O)OCc1ccc(F)cc1` returned a logP of 2.3. For the molecule `CN(C)C(=O)OCc1ccc(I)cc1`, the logP came out at 3.32. Then `CN(C)C(=O)OCc1ccc(Cl)cc1`, with 2.93; and `CN(C)C(=O)OCc1ccccc1`, with 2.16. For `COc1ccc(COC(=O)N(C)C)cc1` the value was 2.2.

The values above are taken from the SangsterLogP compilation.
